Reference: patent US20050065136A1, “Methods and compositions for the treatment of infertility using dilute hormone solutions” (priority 2003, published 2005)

Experiments:
Assay type in all cases: in vivo, human
[1] = Symptom relief on a 0 to 10 scale in women with acute asthma after intradermal progesterone
Protocol: To test this hypothesis, 142 women with acute asthma were asked to evaluate the severity of their symptoms using an eleven point scale. Ten was assigned to the most severe symptoms, while 0 was assigned to an absence of symptoms. Immediately after assessing their symptoms on this scale, patents were administered 0.5 mg of progesterone by intradermal injection. Approximately 15 to 30 seconds after the injection was administered, each patient was asked if her symptoms were worse, better, or unchanged. Each patient was also asked to rate her present symptoms on the same 0 to 10 scale. […] Of the 142 patients tested 129 (91%) positively responded to the treatment. Using the random effects calculations described in Example 3, this correlates to a less than 0.1% chance that the results are random. Thus the results may be considered highly significant.

[2] = Clinical responses of hormone allergy symptoms to intradermal administration of progesterone; settings: dilute doses, sublingually or intradermally
Protocol: Patients experiencing several hormone allergy symptoms experienced relief when administered dilute doses of progesterone either sublingually or intradermally. […] The symptoms measured were irritation or pain in the neck, nose, eyes, throat, ear, skin, back, hips, upper extremities and lower extremities, headache, and shortness of breath. The patients were administered 0.5 mg of progesterone intradermally. Patients were designated as responding patients in Table 2 if they experienced any relief of the indicated symptom. Patients were also asked to estimate the amount of improvement in the symptom, an average of which is indicated as the % improvement in responding patients. In Table 3 the probability that positive results (i.e. patients responding to treatment) were due to random effects was calculated using standard statistical analysis of patient tests. It was assumed that if the treatment has no effect, there is a 50% chance that a patient will indicate a positive response and a 50% chance that a patient will indicate a negative response. From this assumption, coupled with the actual data, one may calculate the probability that positive responses are due to an actual effect of the treatment and not simply random effects. In general, results with a less than 1% chance of being random are considered highly significant. […]

[3] = Relief of symptoms with intradermal estrogen in patients not relieved by progesterone; settings: 0.4 mg intradermally; many patients whose symptoms are not relieved using progesterone
[4] = 0.5 mg intradermal injection, 142 women with acute asthma, 15 to 30 seconds after injection

Compound: CC(=O)[C@H]1CC[C@H]2[C@@H]3CCC4=CC(=O)CC[C@]4(C)[C@H]3CC[C@]12C [Progesterone]
- average symptomatic relief for those who reported some response ([1]; 0 to 10 scale, responders only): 5 points
- average symptomatic relief for all patients ([1]; 0 to 10 scale, responding and not responding patients): 3.4 points
- % of patients reporting 100% relief of asthma symptoms ([1]; 0.5 mg intradermal injection): 28%
- average reduction in symptoms relative to the maximum individual patient score ([1]; 0.5 mg intradermal injection): 62%
- % of patients positively responding to the treatment [1, 4]: 91%
- number of patients positively responding to the treatment [1, 4]: 129
- number of patients reporting 100% relief of asthma symptoms ([1]; 0.5 mg intradermal injection, of the 129 patients with symptom relief): 40
- effectiveness in producing symptom relief as compared to several other antigens [2]: most effective
- speed of relief ([2]; in most patients): very quickly

Compound: estrogen
- relief of symptoms [3]: experience relief
